In patent US6737383B1, “Herbicidal oxadiazolidines” (priority 1999, dated 2004):

Assays:
morningglory = test: Test B pre/postemergence morningglory; format: in vivo, Ipomoea hederacea; conditions: for Morningglory plant response rating: Postemergence; for Plant response rating, Morningglory: Preemergence
How it was run: (§1)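 Test chemicals in a non-phytotoxic solvent mixture with surfactant were sprayed preemergence onto planted seeds and postemergence onto plants 2 to 18 cm tall (1- to 4-leaf stage). After twelve to sixteen days in a greenhouse, injury was visually rated against untreated controls from 0 (no effect) to 10 (complete control).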

bedstraw = test: Test B pre/postemergence bedstraw; format: in vivo, Galium aparine; conditions: Postemergence
How it was run: as §1

rape = test: Test B pre/postemergence rape; format: in vivo, Brassica napus; conditions: for Rape plant response rating: Postemergence; for Plant response rating, Rape: Preemergence
How it was run: as §1

rice = test: Test B flood test rice; format: in vivo, Oryza sativa
How it was run: (§2)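 Flood test on plants grown to the 2-leaf stage; treated plants kept in greenhouse twelve to sixteen days, then visually rated against controls on a 0 (no effect) to 10 (complete control) scale.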

duck salad = test: Test B flood test duck salad; format: in vivo, Heteranthera limosa
How it was run: as §2

purple nutsedge = test: Test B pre/postemergence purple nutsedge; format: in vivo, Cyperus rotundus; conditions: for Nutsedge plant response rating: Postemergence; for Plant response rating, Nutsedge: Preemergence
How it was run: as §1

crabgrass = test: Test B pre/postemergence crabgrass; format: in vivo, Digitaria sanguinalis; conditions: for Crabgrass plant response rating: Postemergence; for Plant response rating, Crabgrass: Preemergence
How it was run: as §1

wheat = test: Test B pre/postemergence wheat; format: in vivo, Triticum aestivum; conditions: for Wheat plant response rating: Postemergence; for Plant response rating, Wheat: Preemergence
How it was run: as §1

corn = test: Test B pre/postemergence corn; format: in vivo, Zea mays; conditions: for Corn plant response rating: Postemergence; for Plant response rating, Corn: Preemergence
How it was run: as §1

bamyardgrass = test: Test B flood test barnyardgrass; format: in vivo, Echinochloa crus-galli
How it was run: as §2

soybean = test: Test B pre/postemergence soybean; format: in vivo, Glycine max; conditions: for Soybean plant response rating: Postemergence; for Plant response rating, Soybean: Preemergence
How it was run: as §1

pigweed = test: Test B pre/postemergence pigweed; format: in vivo, Amaranthus retroflexus; conditions: for Redroot pigweed plant response rating: Postemergence; for Plant response rating, Redroot pigweed: Preemergence
How it was run: as §1

giant foxtail = test: Test B pre/postemergence giant foxtail; format: in vivo, Setaria faberii; conditions: for Giant foxtail plant response rating: Postemergence; for Plant response rating, Giant foxtail: Preemergence
How it was run: as §1

wild oat = test: Test B pre/postemergence wild oat; format: in vivo, Avena fatua; conditions: for Wild oats plant response rating: Postemergence; for Plant response rating, Wild oats: Preemergence
How it was run: as §1

cocklebur = test: Test B pre/postemergence cocklebur; format: in vivo, Xanthium strumarium; conditions: for Cocklebur plant response rating: Postemergence; for Plant response rating, Cocklebur: Preemergence
How it was run: as §1

smallflower flatsedge = test: Test B flood test smallflower flatsedge; format: in vivo, Cyperus difformis
How it was run: as §2

blackgrass = test: Test B pre/postemergence blackgrass; format: in vivo, Alopecurus myosuroides; conditions: for Blackgrass plant response rating: Postemergence; for Plant response rating, Blackgrass: Preemergence
How it was run: as §1

sugar beet = test: Test B pre/postemergence sugar beet; format: in vivo, Beta vulgaris; conditions: for Sugarbeets plant response rating: Postemergence; for Plant response rating, Sugarbeets: Preemergence
How it was run: as §1

velvetleaf = test: Test B pre/postemergence velvetleaf; format: in vivo, Abutilon theophrasti; conditions: for Velvetleaf plant response rating: Postemergence; for Plant response rating, Velvetleaf: Preemergence
How it was run: as §1

surinam grass = test: Test B pre/postemergence surinam grass; format: in vivo, Brachiaria decumbens; conditions: for B. signalgrass plant response rating: Postemergence; for Plant response rating, B. signalgrass: Preemergence
How it was run: as §1

[1] = Rate 125 g/ha, scale of 0 to 10 where 0 is no effect and 10 is complete control
[2] = Rate 1000 g/ha, scale 0 to 10 (0 no effect, 10 complete control)
[3] = Rate 500 g/ha, scale of 0 to 10 where 0 is no effect and 10 is complete control
[4] = Rate 250 g/ha, scale 0 to 10, 0 is no effect, 10 is complete control
[5] = Rate 500 g/ha, scale 0 to 10, 0 is no effect, 10 is complete control
[6] = Pre-emergence, Rate 1000 g/ha, scale 0 to 10 (0 no effect, 10 complete control)
[7] = Rate 125 g/ha, under heading Pre-emergence, flood test species, visual evaluation after twelve to sixteen days
[8] = Rate 250 g/ha, Pre-emergence (flood test species), scale 0 to 10, 0 is no effect, 10 is complete control
[9] = Rate 500 g/ha, Pre-emergence section of Table B, 0 to 10 scale (0 no effect, 10 complete control)
[10] = Rate 250 g/ha, scale 0 to 10 (0 no effect, 10 complete control)

In the case of `COC(=O)C(CCO)n1c(=O)on(C(=O)N(c2ccc(F)cc2)C(C)C)c1=O` (stereo not drawn) [Compound 680], the “Morningglory plant response rating” value (morningglory; [1]) is reported as 1, the “Morningglory plant response rating” value (morningglory; [2]) is reported as 7 and the “Plant response rating, Morningglory” value (morningglory; [1]) is reported as 0. The “Plant response rating, Morningglory” value (morningglory; [3]) was 0, the “Morningglory plant response rating” value (morningglory; [4]) was 1 and the “Morningglory plant response rating” value (morningglory; [5]) was 1. For the same compound, the “Plant response rating, Morningglory” value (morningglory; [2]) was 0, the “Bedstraw plant response rating” value (bedstraw; [1]) was 0 and the “Bedstraw plant response rating” value (bedstraw; [4]) was 0. The “Bedstraw plant response rating” value (bedstraw; [5]) was 0, the “Rape plant response rating” value (rape; [1]) was 0 and the “Rape plant response rating” value (rape; [2]) was 0. The “Plant response rating, Rape” value (rape; [1]) was 0, the “Plant response rating, Rape” value (rape; [3]) was 0 and the “Rape plant response rating” value (rape; [4]) was 0. For the same compound, the “Rape plant response rating” value (rape; [5]) was 0, the “Plant response rating, Rape” value (rape; [2]) was 0 and the “Rice plant response rating” value (rice; [6]) was 0. For the same compound, the “Rice plant response rating (0 to 10 scale, 0 is no effect, 10 is complete control)” value (rice; [7]) was 0, the “Rice plant response rating” value (rice; [8]) was 0 and the “Rice plant response rating” value (rice; [9]) was 0. The “Ducksalad plant response rating” value (duck salad; [6]) was 0, the “Ducksalad plant response rating (0 to 10 scale, 0 is no effect, 10 is complete control)” value (duck salad; [7]) was 0 and the “Ducksalad plant response rating” value (duck salad; [8]) was 0. The “Ducksalad plant response rating” value (duck salad; [9]) was 0, the “Nutsedge plant response rating” value (purple nutsedge; [1]) was 0 and the “Plant response rating, Nutsedge” value (purple nutsedge; [1]) was 0. The “Plant response rating, Nutsedge” value (purple nutsedge; [3]) was 0, the “Nutsedge plant response rating” value (purple nutsedge; [4]) was 0 and the “Nutsedge plant response rating” value (purple nutsedge; [5]) was 0. For the same compound, the “Plant response rating, Nutsedge” value (purple nutsedge; [2]) was 0, the “Crabgrass plant response rating” value (crabgrass; [1]) was 0 and the “Crabgrass plant response rating” value (crabgrass; [2]) was 9. For the same compound, the “Plant response rating, Crabgrass” value (crabgrass; [1]) was 0, the “Plant response rating, Crabgrass” value (crabgrass; [10]) was 3 and the “Plant response rating, Crabgrass” value (crabgrass; [3]) was 3. For the same compound, the “Crabgrass plant response rating” value (crabgrass; [4]) was 1, the “Crabgrass plant response rating” value (crabgrass; [5]) was 3 and the “Plant response rating, Crabgrass” value (crabgrass; [2]) was 3. The “Wheat plant response rating” value (wheat; [1]) was 0, the “Plant response rating, Wheat” value (wheat; [1]) was 0 and the “Plant response rating, Wheat” value (wheat; [3]) was 0. For the same compound, the “Wheat plant response rating” value (wheat; [4]) was 0, the “Wheat plant response rating” value (wheat; [5]) was 0 and the “Plant response rating, Wheat” value (wheat; [2]) was 0. For the same compound, the “Corn plant response rating” value (corn; [1]) was 0, the “Corn plant response rating” value (corn; [2]) was 1 and the “Plant response rating, Corn” value (corn; [1]) was 0. For the same compound, the “Plant response rating, Corn” value (corn; [10]) was 0, the “Plant response rating, Corn” value (corn; [3]) was 0 and the “Corn plant response rating” value (corn; [4]) was 0. The “Corn plant response rating” value (corn; [5]) was 0, the “Plant response rating, Corn” value (corn; [2]) was 0 and the “Barnyardgrass plant response rating” value (bamyardgrass; [6]) was 0. The “Barnyardgrass plant response rating (0 to 10 scale, 0 is no effect, 10 is complete control)” value (bamyardgrass; [7]) was 0, the “Barnyardgrass plant response rating” value (bamyardgrass; [8]) was 0 and the “Barnyardgrass plant response rating” value (bamyardgrass; [9]) was 0. The “Soybean plant response rating” value (soybean; [1]) was 0, the “Plant response rating, Soybean” value (soybean; [1]) was 0 and the “Plant response rating, Soybean” value (soybean; [3]) was 0. For the same compound, the “Soybean plant response rating” value (soybean; [4]) was 0, the “Soybean plant response rating” value (soybean; [5]) was 3 and the “Plant response rating, Soybean” value (soybean; [2]) was 0. The “Redroot pigweed plant response rating” value (pigweed; [1]) was 0, the “Redroot pigweed plant response rating” value (pigweed; [2]) was 5 and the “Plant response rating, Redroot pigweed” value (pigweed; [1]) was 0. The “Plant response rating, Redroot pigweed” value (pigweed; [3]) was 3, the “Redroot pigweed plant response rating” value (pigweed; [4]) was 0 and the “Redroot pigweed plant response rating” value (pigweed; [5]) was 0. The “Plant response rating, Redroot pigweed” value (pigweed; [2]) was 7, the “Giant foxtail plant response rating” value (giant foxtail; [1]) was 0 and the “Giant foxtail plant response rating” value (giant foxtail; [2]) was 8. For the same compound, the “Plant response rating, Giant foxtail” value (giant foxtail; [1]) was 0, the “Plant response rating, Giant foxtail” value (giant foxtail; [3]) was 4 and the “Giant foxtail plant response rating” value (giant foxtail; [4]) was 0. The “Giant foxtail plant response rating” value (giant foxtail; [5]) was 5, the “Plant response rating, Giant foxtail” value (giant foxtail; [2]) was 7 and the “Wild oats plant response rating” value (wild oat; [1]) was 0. The “Plant response rating, Wild oats” value (wild oat; [1]) was 0, the “Plant response rating, Wild oats” value (wild oat; [3]) was 0 and the “Wild oats plant response rating” value (wild oat; [4]) was 0. For the same compound, the “Wild oats plant response rating” value (wild oat; [5]) was 0, the “Plant response rating, Wild oats” value (wild oat; [2]) was 2 and the “Cocklebur plant response rating” value (cocklebur; [1]) was 0. For the same compound, the “Cocklebur plant response rating” value (cocklebur; [2]) was 0, the “Plant response rating, Cocklebur” value (cocklebur; [1]) was 0 and the “Plant response rating, Cocklebur” value (cocklebur; [10]) was 0. The “Plant response rating, Cocklebur” value (cocklebur; [3]) was 0, the “Cocklebur plant response rating” value (cocklebur; [4]) was 0 and the “Cocklebur plant response rating” value (cocklebur; [5]) was 0. For the same compound, the “Plant response rating, Cocklebur” value (cocklebur; [2]) was 0, the “S. Flatsedge plant response rating” value (smallflower flatsedge; [6]) was 0 and the “S. Flatsedge plant response rating (0 to 10 scale, 0 is no effect, 10 is complete control)” value (smallflower flatsedge; [7]) was 0. For the same compound, the “S. Flatsedge plant response rating” value (smallflower flatsedge; [8]) was 0, the “S. Flatsedge plant response rating” value (smallflower flatsedge; [9]) was 0 and the “Blackgrass plant response rating” value (blackgrass; [1]) was 0. The “Blackgrass plant response rating” value (blackgrass; [2]) was 3, the “Plant response rating, Blackgrass” value (blackgrass; [1]) was 0 and the “Plant response rating, Blackgrass” value (blackgrass; [10]) was 0. The “Plant response rating, Blackgrass” value (blackgrass; [3]) was 4, the “Blackgrass plant response rating” value (blackgrass; [4]) was 0 and the “Blackgrass plant response rating” value (blackgrass; [5]) was 1. For the same compound, the “Plant response rating, Blackgrass” value (blackgrass; [2]) was 4, the “Sugarbeets plant response rating” value (sugar beet; [1]) was 0 and the “Plant response rating, Sugarbeets” value (sugar beet; [1]) was 0. The “Plant response rating, Sugarbeets” value (sugar beet; [3]) was 0, the “Sugarbeets plant response rating” value (sugar beet; [4]) was 0 and the “Sugarbeets plant response rating” value (sugar beet; [5]) was 0. For the same compound, the “Plant response rating, Sugarbeets” value (sugar beet; [2]) was 0, the “Velvetleaf plant response rating” value (velvetleaf; [1]) was 0 and the “Plant response rating, Velvetleaf” value (velvetleaf; [1]) was 0. For the same compound, the “Plant response rating, Velvetleaf” value (velvetleaf; [3]) was 0, the “Velvetleaf plant response rating” value (velvetleaf; [4]) was 0 and the “Velvetleaf plant response rating” value (velvetleaf; [5]) was 0. The “Plant response rating, Velvetleaf” value (velvetleaf; [2]) was 4, the “B. signalgrass plant response rating” value (surinam grass; [1]) was 0 and the “B. signalgrass plant response rating” value (surinam grass; [2]) was 3. The “Plant response rating, B. signalgrass” value (surinam grass; [1]) was 0, the “Plant response rating, B. signalgrass” value (surinam grass; [10]) was 0 and the “Plant response rating, B. signalgrass” value (surinam grass; [3]) was 0. The “B. signalgrass plant response rating” value (surinam grass; [4]) was 0, the “B. signalgrass plant response rating” value (surinam grass; [5]) was 0 and the “Plant response rating, B. signalgrass” value (surinam grass; [2]) was 0.
